The subject of assay [1] is Streptococcus sp. group D 2041. The assay is described as follows: agar-dilution MIC. The class given is cell-based.
The test system of assay [2] is Staphylococcus epidermidis 222. Description: agar-dilution MIC. It is filed as cell-based.
Assay [3] has as its system Streptococcus pyrogenes C203. Description: agar-dilution MIC. The class given is cell-based.
Assay [4] relates to Haemophilus influenzae C.L. The assay is described as follows: agar-dilution MIC. It is filed as cell-based.
Assay [5] relates to Haemophilus influenzae 76. The assay is described as follows: agar-dilution MIC. The class given is cell-based.
Assay [6] relates to Staphylococcus aureus NRRL B313. Description: agar-dilution MIC. It is filed as cell-based.
In assay [7] the test system is Staphylococcus aureus X400. The assay is described as follows: agar-dilution MIC. It is filed as cell-based.
Assay [8] has as its system Streptococcus faecium ATCC 9790. The assay is described as follows: agar-dilution MIC. The class given is cell-based.
The subject of assay [9] is Staphylococcus aureus S13E. The class given is cell-based. Particulars: agar dilution.
In assay [10] the test system is Staphylococcus aureus V41. Description: agar-dilution MIC. It is filed as cell-based.
In assay [11] the test system is Staphylococcus epidermidis EP11. Description: agar-dilution MIC. It is filed as cell-based.
Assay [12] concerns Streptococcus pneumoniae Park 1. The class given is cell-based. Particulars: agar dilution.
The next assay concerns Streptococcus pyogenes. Description: experimental bacterial infection in mice, ED50. It is filed as in vivo. The following applies: two doses, subcutaneously. On the procedure:
(§1) Some of the compounds of this invention have also shown in vivo antimicrobial activity against experimental bacterial infections. When two doses of test compound were administered to mice in experimental infections, the activity observed was measured as an ED50 value [effective dose in mg/kg to protect 50% of the test animals: see Warren Wick, et al., J. Bacteriol. 81, 233-235 (1961)].

In another assay the test system is Streptococcus pneumoniae. The assay is described as follows: experimental bacterial infection in mice, ED50. It is filed as in vivo. Particulars: two doses, subcutaneously. On the procedure:
as §1

For the next assay, the system named is Staphylococcus aureus. The assay is described as follows: experimental bacterial infection in mice, ED50. It is filed as in vivo. The following applies: two doses, subcutaneously. On the procedure: as §1

In brackets after ≈: the same amount, converted by molar mass.

In the case of `CCCCCCCCOc1ccc(C(=O)N[C@@]2(C)C[C@H](O[C@H]3[C@H](Oc4c5cc6cc4Oc4ccc(cc4Cl)[C@@H](O)[C@@H](NC(=O)[C@@H](CC(C)C)NC)C(=O)N[C@@H](CC(N)=O)C(=O)N[C@H]6C(=O)N[C@H]4C(=O)N[C@H](C(=O)N[C@H](C(=O)O)c6cc(O)cc(O)c6-c6cc4ccc6O)[C@H](O)c4ccc(c(Cl)c4)O5)O[C@H](CO)[C@@H](O)[C@@H]3O)O[C@@H](C)[C@H]2O)cc1` [Compound 1, N^van --[4-(n-octyloxy)benzoyl]vancomycin], the MIC in assay [1] is 1 µg/mL (≈ 0.595 µM); in [2], 4 µg/mL (≈ 2.38 µM); in assay [3] it was 2 µg/mL (≈ 1.19 µM); in assay [4], “-- (-- = not active at 128 mcg/ml)”; in assay [5], “-- (-- = not active at 128 mcg/ml)”; in assay [6], 1 µg/mL (≈ 0.595 µM). For the same compound, the MIC in assay [7] was 2 µg/mL (≈ 1.19 µM); in assay [8], 0.5 µg/mL (≈ 0.297 µM); in assay [9] it was 1 µg/mL (≈ 0.595 µM); in [10], 1 µg/mL (≈ 0.595 µM); in assay [11] it was 16 µg/mL (≈ 9.51 µM); in assay [12] it was 2 µg/mL (≈ 1.19 µM).

With `CCCCCCCCc1ccc(C(=O)N[C@@]2(C)C[C@H](O[C@H]3[C@H](Oc4c5cc6cc4Oc4ccc(cc4Cl)[C@@H](O)[C@@H](NC(=O)[C@@H](CC(C)C)NC)C(=O)N[C@@H](CC(N)=O)C(=O)N[C@H]6C(=O)N[C@H]4C(=O)N[C@H](C(=O)N[C@H](C(=O)O)c6cc(O)cc(O)c6-c6cc4ccc6O)[C@H](O)c4ccc(c(Cl)c4)O5)O[C@H](CO)[C@@H](O)[C@@H]3O)O[C@@H](C)[C@H]2O)cc1` [Compound 2, N^van --[4-(n-octyl)benzoyl]vancomycin], the MIC in [1] was 0.125 µg/mL (≈ 0.075 µM); in [2] it was 1 µg/mL (≈ 0.6 µM); in assay [3], 0.25 µg/mL (≈ 0.15 µM); in [4], “-- (-- = not active at 128 mcg/ml)”; in assay [5], “-- (-- = not active at 128 mcg/ml)”; in assay [6], 0.5 µg/mL (≈ 0.3 µM). The MIC in assay [7] stood at 0.5 µg/mL (≈ 0.3 µM); in [8], 0.125 µg/mL (≈ 0.075 µM); in assay [9], 0.5 µg/mL (≈ 0.3 µM); in assay [10], 0.5 µg/mL (≈ 0.3 µM); in assay [11], 8 µg/mL (≈ 4.8 µM); in [12], 0.5 µg/mL (≈ 0.3 µM). Besides, the ED50 is reported as 1.0 mg/kg/2 in the assay on Streptococcus pyogenes, 0.72 mg/kg/2 in the assay on Streptococcus pneumoniae and 3.78 mg/kg/2 in the assay with Staphylococcus aureus.

In the case of `CCCCCCCCc1ccc(C(=O)N(C)C(CC(C)C)C(=O)NC2C(=O)NC(CC(N)=O)C(=O)NC3C(=O)NC4C(=O)NC(C(=O)NC(C(=O)O)c5cc(O)cc(O)c5-c5cc4ccc5O)C(O)c4ccc(c(Cl)c4)Oc4cc3cc(c4OC3OC(CO)C(O)C(O)C3OC3CC(C)(N)C(O)C(C)O3)Oc3ccc(cc3Cl)C2O)cc1` (stereo not drawn) [Compound 3, N^leu --[4-(n-octyl)benzoyl]vancomycin], the MIC in [1] worked out at 1 µg/mL (≈ 0.6 µM); in assay [2] it was 2 µg/mL (≈ 1.2 µM); in assay [3], 1 µg/mL (≈ 0.6 µM); in assay [4], 128 µg/mL (≈ 76.8 µM); in assay [5], 64 µg/mL (≈ 38.4 µM); in [6], 2 µg/mL (≈ 1.2 µM). Further, the MIC is 2 µg/mL (≈ 1.2 µM) in [7]; 1 µg/mL (≈ 0.6 µM) in assay [8]; 2 µg/mL (≈ 1.2 µM) in [9]; 2 µg/mL (≈ 1.2 µM) in assay [10]; 16 µg/mL (≈ 9.61 µM) in [11]; 1 µg/mL (≈ 0.6 µM) in [12].

Regarding `CN[C@H](CC(C)C)C(=O)N[C@H]1C(=O)N[C@@H](CC(N)=O)C(=O)N[C@H]2C(=O)N[C@H]3C(=O)N[C@H](C(=O)N[C@H](C(=O)O)c4cc(O)cc(O)c4-c4cc3ccc4O)[C@H](O)c3ccc(c(Cl)c3)Oc3cc2cc(c3O[C@@H]2O[C@H](CO)[C@@H](O)[C@H](O)[C@H]2O[C@H]2C[C@](C)(NC(=O)c3ccc(OC)cc3)[C@H](O)[C@H](C)O2)Oc2ccc(cc2Cl)[C@H]1O` [Compound 4, N^van --(4-methoxybenzoyl)vancomycin], the MIC in [1] came to 8 µg/mL (≈ 5.05 µM); in assay [2] it was 2 µg/mL (≈ 1.26 µM); in assay [3] it was 1 µg/mL (≈ 0.632 µM); in [4], 128 µg/mL (≈ 80.8 µM); in [5], 128 µg/mL (≈ 80.8 µM); in assay [6], 2 µg/mL (≈ 1.26 µM). For the same compound, the MIC in [7] turned out to be 2 µg/mL (≈ 1.26 µM); in assay [8] it was 2 µg/mL (≈ 1.26 µM); in assay [9], 2 µg/mL (≈ 1.26 µM); in assay [10], 2 µg/mL (≈ 1.26 µM); in assay [11], 8 µg/mL (≈ 5.05 µM); in assay [12], 0.5 µg/mL (≈ 0.316 µM).

Consider `CC(C)C[C@H](C(=O)N[C@H]1C(=O)N[C@@H](CC(N)=O)C(=O)N[C@H]2C(=O)N[C@H]3C(=O)N[C@H](C(=O)N[C@H](C(=O)O)c4cc(O)cc(O)c4-c4cc3ccc4O)[C@H](O)c3ccc(c(Cl)c3)Oc3cc2cc(c3O[C@@H]2O[C@H](CO)[C@@H](O)[C@H](O)[C@H]2O[C@H]2C[C@](C)(NC(=O)CSc3ccccc3)[C@H](O)[C@H](C)O2)Oc2ccc(cc2Cl)[C@H]1O)N(C)C(=O)CSc1ccccc1` [Compound 12, N^van,N^leu-di-[1-oxo-2-(phenylthio)ethyl]vancomycin], for which the MIC in assay [1] is 64 µg/mL (≈ 36.6 µM); in assay [2], 64 µg/mL (≈ 36.6 µM); in assay [3] it was 8 µg/mL (≈ 4.57 µM); in assay [4], “-- (-- = not active at 128 mcg/ml)”; in assay [5], “-- (-- = not active at 128 mcg/ml)”; in assay [6], 16 µg/mL (≈ 9.14 µM). For the same compound, the MIC in assay [7] worked out at 32 µg/mL (≈ 18.3 µM); in [8], 32 µg/mL (≈ 18.3 µM); in [9], 32 µg/mL (≈ 18.3 µM); in [10], 16 µg/mL (≈ 9.14 µM); in assay [11] it was 128 µg/mL (≈ 73.2 µM); in assay [12], 8 µg/mL (≈ 4.57 µM).

For the compound `CN[C@H](CC(C)C)C(=O)N[C@H]1C(=O)N[C@@H](CC(N)=O)C(=O)N[C@H]2C(=O)N[C@H]3C(=O)N[C@H](C(=O)N[C@H](C(=O)O)c4cc(O)cc(O)c4-c4cc3ccc4O)[C@H](O)c3ccc(c(Cl)c3)Oc3cc2cc(c3O[C@@H]2O[C@H](CO)[C@@H](O)[C@H](O)[C@H]2O[C@H]2C[C@](C)(N)[C@H](O)[C@H](C)O2)Oc2ccc(cc2Cl)[C@H]1O` [vancomycin, Vancomycin, reference compound], the ED50 in the assay with Streptococcus pyogenes is 0.99-1.1 mg/kg/2; in the assay on Streptococcus pneumoniae, 0.90-0.93 mg/kg/2; with Staphylococcus aureus, 1.8-3.7 mg/kg/2.

For “N^leu --(4-methoxybenzoyl)vancomycin [Compound 5]”, the MIC in [1] is 8 µg/mL; in assay [2] it was 4 µg/mL; in [3], 2 µg/mL; in [4], “-- (-- = not active at 128 mcg/ml)”; in assay [5], “-- (-- = not active at 128 mcg/ml)”; in [6], 2 µg/mL. Moreover, the MIC came out at 4 µg/mL in assay [7]; 4 µg/mL in assay [8]; 4 µg/mL in assay [9]; 2 µg/mL in [10]; 16 µg/mL in assay [11]; 2 µg/mL in assay [12].

In the case of “N^leu -[1-oxo-2-(phenylthio)ethyl]vancomycin [Compound 11]”, the MIC in [1] is 16 µg/mL; in assay [2], 8 µg/mL; in assay [3] it was 4 µg/mL; in assay [4], “-- (-- = not active at 128 mcg/ml)”; in assay [5], “-- (-- = not active at 128 mcg/ml)”; in [6], 4 µg/mL. Besides, the MIC was determined as 8 µg/mL in assay [7]; 8 µg/mL in assay [8]; 4 µg/mL in [9]; 4 µg/mL in assay [10]; 16 µg/mL in assay [11]; 2 µg/mL in assay [12].

The values are drawn from patent US4643987A, “Modified glycopeptides” (Eli Lilly and Company, priority 1985, dated 1987).
